Entries after “also recorded” stand apart in the source; their conditions may differ. Like-named read-outs stand apart in the source and are kept apart here.
What was measured:
recombinant human IDO = molecular target: T1, recombinant human IDO (Homo sapiens, UniProt P14902); experiment: IDO enzymatic assay; type: biochemical; settings: in vitro enzymatic assay
T1 construct: purchased R&D Systems (Minneapolis, MN, USA)
Description: IDO activity was determined as described by Takahashi et al.[25] using recombinant human IDO purchased from R&D Systems (Minneapolis, MN, USA). The yellow pigment derived from kynurenine was measured at 490 nm using the Spectramax microplate reader (Molecular Devices).

339 kinases = tested on: 339 kinases
Description: (§1) The compound was tested at a single dose in duplicate at 10 μM. Reactions were carried out at 10 μM ATP. Data are reported as % enzyme activity (relative to DMSO controls). The full data set is shown in the Supplementary Table I.

GRK6 = molecular target: T2, GRK6 (Homo sapiens, UniProt P43250); experiment: Kinase selectivity, P33-radiolabeled assay; type: biochemical; settings: 10 μM ATP
T2 construct: purchased Reaction Biology Corp
Description: as §1

MST1/STK4 = molecular target: T3, MST1/STK4 (Homo sapiens, UniProt Q13043); experiment: Kinase selectivity, P33-radiolabeled assay; type: biochemical; settings: 10 μM ATP
T3 construct: purchased Reaction Biology Corp
T3 sequence (Q13043 1-487): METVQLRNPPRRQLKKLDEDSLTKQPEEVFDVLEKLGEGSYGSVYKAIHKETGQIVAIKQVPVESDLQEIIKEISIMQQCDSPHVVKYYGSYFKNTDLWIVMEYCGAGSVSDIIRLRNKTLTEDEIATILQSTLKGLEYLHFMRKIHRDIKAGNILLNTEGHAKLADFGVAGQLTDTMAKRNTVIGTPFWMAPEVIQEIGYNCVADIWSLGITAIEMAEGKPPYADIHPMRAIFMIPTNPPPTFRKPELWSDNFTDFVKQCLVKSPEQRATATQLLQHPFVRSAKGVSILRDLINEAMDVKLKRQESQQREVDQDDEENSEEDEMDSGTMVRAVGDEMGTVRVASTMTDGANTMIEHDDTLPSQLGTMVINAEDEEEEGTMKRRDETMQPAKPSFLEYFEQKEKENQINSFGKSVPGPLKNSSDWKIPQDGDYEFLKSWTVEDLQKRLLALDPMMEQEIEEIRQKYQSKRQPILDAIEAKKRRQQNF
Description: as §1

CDK2/Cyclin A1 = molecular target: T4, CDK2/Cyclin A1 (Homo sapiens, UniProt P24941); experiment: Kinase selectivity, P33-radiolabeled assay; type: biochemical; settings: 10 μM ATP
T4 construct: purchased Reaction Biology Corp
Description: as §1

EPHA5 = molecular target: T5, EPHA5 (Homo sapiens, UniProt P54756); experiment: Kinase selectivity, P33-radiolabeled assay; type: biochemical; settings: 10 μM ATP
T5 construct: purchased Reaction Biology Corp
Description: as §1

PAK1 = molecular target: T6, PAK1 (Homo sapiens, UniProt Q13153); experiment: Kinase selectivity, P33-radiolabeled assay; type: biochemical; settings: 10 μM ATP
T6 construct: purchased Reaction Biology Corp
Description: as §1

TRKB = molecular target: T7, TRKB (Homo sapiens, UniProt Q16620); experiment: Kinase selectivity, P33-radiolabeled assay; type: biochemical; settings: 10 μM ATP
T7 construct: purchased Reaction Biology Corp
Description: as §1

CAMK1d = molecular target: T8, CAMK1d (Homo sapiens, UniProt Q8IU85); experiment: Kinase selectivity, P33-radiolabeled assay; type: biochemical; settings: 10 μM ATP
T8 construct: purchased Reaction Biology Corp
Description: as §1

CAMK2g = molecular target: T9, CAMK2g (Homo sapiens, UniProt Q13555); experiment: Kinase selectivity, P33-radiolabeled assay; type: biochemical; settings: 10 μM ATP
T9 construct: purchased Reaction Biology Corp
Description: as §1

[1] = tested on: primary human neutrophils; experiment: TNF, zVAD and SMAC mimetic-induced necroptosis, CellTiter-Glo; type: cell-based; settings: Neutrophil, read-out: IC50 blocking necroptosis
Description: (§2) Mouse fibrosarcoma L929 cells (ATCC# CCL-1) and human monocytic U937 cells (ATCC# CRL-1593.2) were cultured in RPMI media supplemented with 10% heat-inactivated FBS, 100 U/ml penicillin and […] streptomycin. BMDM were prepared from C57BL/6 mice by differentiation with 10 ng/ml M-CSF (R&D Systems) for 7 days and cultured in DMEM medium supplemented with 10% heat-inactivated FBS, 100 U/ml penicillin, 100 μg/ml streptomycin and 0.25 μg/ml amphotericin. Primary human neutrophils were isolated from human blood following the standard method comprised of sequential sedimentation in dextran, density centrifugation in Ficoll–Hypaque and lysis of contaminating red blood cells.
Necroptotic cell death was induced in BMDM, L929 and U937 cells with TNF in the presence of caspase inhibitor zVAD-FMK or QVD-Oph (BMDM: 50 ng/ml TNF+50 μM zVAD; L929: 100 ng/ml TNF+50 μM QVD; U937: 100 ng/ml TNF+25 μM QVD). To evaluate the effect of RIP1 inhibitors, cells were pretreated with compound (dose–response) for 30 min. Induced cell death was evaluated 19–21 h later by measuring cellular ATP levels using CellTiter-Glo Luminescent Cell Viability assay (Promega, Fitchburg, WI, USA). […] Induced cell death was evaluated as above.

[2] = tested on: mouse fibrosarcoma L929 cells; experiment: TNF+zVAD-induced necroptosis, CellTiter-Glo; type: cell-based; settings: overnight, read-out: IC50 blocking necroptosis
Description: as §2
(§3) […] To evaluate the effect of RIP1 inhibitors, cells were pretreated with compound (dose–response) for 30 min. Induced cell death was evaluated 19–21 h later by measuring cellular ATP levels using CellTiter-Glo Luminescent Cell Viability assay (Promega, Fitchburg, WI, USA). To induce necroptosis in neutrophils, freshly isolated human neutrophils were stimulated with TNF (10 ng/ml), QVD-Oph (50 μM) and SMAC mimetic (100 nM). Induced cell death was evaluated as above.

[3] = tested on: human monocytic U937 cells; experiment: TNF+zVAD-induced necroptosis, CellTiter-Glo; type: cell-based; settings: U-937, U937, overnight, read-out: IC50 blocking necroptosis
Description: as §2, §3

C57BL/6 mice = experiment: TNF+zVAD-induced shock model (temperature loss); type: in vivo, mouse; settings: 15 min before TNF+zVAD
Description: Temperature was monitored over the course of 3 h by rectal probe.

[4] = read-out: % Enzyme Activity (relative to DMSO controls) AVG
[5] = read-out: % Enzyme Activity (relative to DMSO controls) Data 1
[6] = read-out: % Enzyme Activity (relative to DMSO controls) Data 2

T7 sequence (Q16620 32-822): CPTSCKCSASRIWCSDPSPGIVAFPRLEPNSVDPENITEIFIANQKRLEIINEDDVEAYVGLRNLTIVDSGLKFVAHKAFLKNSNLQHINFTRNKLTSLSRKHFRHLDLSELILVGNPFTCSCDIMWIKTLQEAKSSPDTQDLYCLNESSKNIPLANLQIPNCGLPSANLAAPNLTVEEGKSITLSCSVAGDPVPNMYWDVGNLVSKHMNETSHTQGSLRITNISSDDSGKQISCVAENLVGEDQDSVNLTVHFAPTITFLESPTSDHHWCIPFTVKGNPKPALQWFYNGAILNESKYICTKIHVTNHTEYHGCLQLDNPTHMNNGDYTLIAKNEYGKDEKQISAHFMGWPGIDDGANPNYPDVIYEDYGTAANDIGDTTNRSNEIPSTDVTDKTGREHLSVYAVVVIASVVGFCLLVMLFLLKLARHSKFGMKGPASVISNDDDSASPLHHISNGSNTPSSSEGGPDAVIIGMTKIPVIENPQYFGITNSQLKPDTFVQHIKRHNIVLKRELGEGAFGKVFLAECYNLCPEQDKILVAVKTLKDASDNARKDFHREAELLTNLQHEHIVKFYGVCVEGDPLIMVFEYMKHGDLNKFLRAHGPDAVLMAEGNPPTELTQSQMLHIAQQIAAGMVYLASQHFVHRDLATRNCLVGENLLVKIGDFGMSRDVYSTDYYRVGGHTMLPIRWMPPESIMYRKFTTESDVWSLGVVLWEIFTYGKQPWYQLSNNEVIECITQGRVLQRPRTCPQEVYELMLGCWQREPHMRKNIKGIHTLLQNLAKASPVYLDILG
T2 sequence (P43250 whole entry): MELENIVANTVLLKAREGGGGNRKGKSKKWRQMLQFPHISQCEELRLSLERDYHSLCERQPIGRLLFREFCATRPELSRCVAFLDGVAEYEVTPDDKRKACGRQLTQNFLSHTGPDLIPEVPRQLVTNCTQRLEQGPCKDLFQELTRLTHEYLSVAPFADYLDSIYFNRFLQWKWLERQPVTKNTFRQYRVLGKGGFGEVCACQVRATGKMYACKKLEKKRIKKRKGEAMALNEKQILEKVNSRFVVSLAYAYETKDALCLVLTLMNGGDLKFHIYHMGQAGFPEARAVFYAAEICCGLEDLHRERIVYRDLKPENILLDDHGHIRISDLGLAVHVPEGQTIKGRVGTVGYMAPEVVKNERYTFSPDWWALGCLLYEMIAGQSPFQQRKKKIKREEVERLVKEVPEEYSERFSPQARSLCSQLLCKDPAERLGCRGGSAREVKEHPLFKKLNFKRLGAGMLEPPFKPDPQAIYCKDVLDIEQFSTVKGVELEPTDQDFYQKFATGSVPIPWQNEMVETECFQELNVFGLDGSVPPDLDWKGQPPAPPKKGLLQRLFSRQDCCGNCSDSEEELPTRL
T6 sequence (Q13153 whole entry): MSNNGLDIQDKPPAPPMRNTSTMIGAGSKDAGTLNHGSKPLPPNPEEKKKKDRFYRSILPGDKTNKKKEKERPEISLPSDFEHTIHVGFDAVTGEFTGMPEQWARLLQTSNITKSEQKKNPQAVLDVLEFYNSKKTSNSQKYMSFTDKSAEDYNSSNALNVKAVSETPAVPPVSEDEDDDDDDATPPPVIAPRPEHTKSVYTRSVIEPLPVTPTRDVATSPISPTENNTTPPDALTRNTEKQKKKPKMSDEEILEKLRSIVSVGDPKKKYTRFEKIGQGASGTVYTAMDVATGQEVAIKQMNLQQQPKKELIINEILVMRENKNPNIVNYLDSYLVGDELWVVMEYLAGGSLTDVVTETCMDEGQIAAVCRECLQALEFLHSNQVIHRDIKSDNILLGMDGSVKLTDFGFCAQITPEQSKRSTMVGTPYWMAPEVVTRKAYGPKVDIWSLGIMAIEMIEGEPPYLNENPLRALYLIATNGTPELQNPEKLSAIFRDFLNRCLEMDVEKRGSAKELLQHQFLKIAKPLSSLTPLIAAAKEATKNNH
T8 sequence (Q8IU85 whole entry): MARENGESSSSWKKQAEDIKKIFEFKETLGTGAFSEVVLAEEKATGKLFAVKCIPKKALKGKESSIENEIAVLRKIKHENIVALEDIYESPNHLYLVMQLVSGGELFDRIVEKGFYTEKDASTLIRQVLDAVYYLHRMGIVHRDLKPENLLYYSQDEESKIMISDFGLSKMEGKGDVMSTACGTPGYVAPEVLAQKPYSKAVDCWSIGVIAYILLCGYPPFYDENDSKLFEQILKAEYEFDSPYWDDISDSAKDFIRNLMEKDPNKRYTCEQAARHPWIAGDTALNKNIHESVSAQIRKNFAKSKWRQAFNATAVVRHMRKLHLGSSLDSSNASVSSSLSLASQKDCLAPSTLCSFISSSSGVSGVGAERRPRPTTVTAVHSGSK
T1 sequence (P14902 whole entry): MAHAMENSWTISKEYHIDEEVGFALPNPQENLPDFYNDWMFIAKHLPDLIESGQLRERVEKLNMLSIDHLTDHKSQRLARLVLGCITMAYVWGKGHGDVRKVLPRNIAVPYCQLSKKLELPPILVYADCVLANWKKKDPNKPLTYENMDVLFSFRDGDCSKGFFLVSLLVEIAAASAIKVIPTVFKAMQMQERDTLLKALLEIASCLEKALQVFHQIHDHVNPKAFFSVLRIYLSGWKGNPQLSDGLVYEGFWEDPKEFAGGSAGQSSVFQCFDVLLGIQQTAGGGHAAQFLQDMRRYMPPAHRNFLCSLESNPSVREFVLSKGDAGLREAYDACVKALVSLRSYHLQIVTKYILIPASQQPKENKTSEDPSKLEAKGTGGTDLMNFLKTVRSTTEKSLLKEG
T9 sequence (Q13555 whole entry): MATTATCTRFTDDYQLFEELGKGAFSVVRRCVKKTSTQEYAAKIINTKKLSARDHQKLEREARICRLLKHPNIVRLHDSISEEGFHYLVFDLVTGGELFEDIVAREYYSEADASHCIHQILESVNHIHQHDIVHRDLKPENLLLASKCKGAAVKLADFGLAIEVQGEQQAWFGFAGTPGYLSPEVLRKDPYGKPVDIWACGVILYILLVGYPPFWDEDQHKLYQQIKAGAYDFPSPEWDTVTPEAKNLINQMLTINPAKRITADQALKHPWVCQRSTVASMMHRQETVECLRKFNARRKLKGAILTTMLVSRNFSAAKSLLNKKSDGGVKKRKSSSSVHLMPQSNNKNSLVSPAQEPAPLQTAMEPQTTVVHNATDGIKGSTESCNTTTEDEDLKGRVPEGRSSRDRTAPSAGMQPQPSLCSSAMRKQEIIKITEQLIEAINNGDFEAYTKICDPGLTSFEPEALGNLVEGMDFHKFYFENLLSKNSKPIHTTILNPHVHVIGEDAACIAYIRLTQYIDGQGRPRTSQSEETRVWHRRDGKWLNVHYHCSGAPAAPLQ
T5 sequence (P54756 25-1037): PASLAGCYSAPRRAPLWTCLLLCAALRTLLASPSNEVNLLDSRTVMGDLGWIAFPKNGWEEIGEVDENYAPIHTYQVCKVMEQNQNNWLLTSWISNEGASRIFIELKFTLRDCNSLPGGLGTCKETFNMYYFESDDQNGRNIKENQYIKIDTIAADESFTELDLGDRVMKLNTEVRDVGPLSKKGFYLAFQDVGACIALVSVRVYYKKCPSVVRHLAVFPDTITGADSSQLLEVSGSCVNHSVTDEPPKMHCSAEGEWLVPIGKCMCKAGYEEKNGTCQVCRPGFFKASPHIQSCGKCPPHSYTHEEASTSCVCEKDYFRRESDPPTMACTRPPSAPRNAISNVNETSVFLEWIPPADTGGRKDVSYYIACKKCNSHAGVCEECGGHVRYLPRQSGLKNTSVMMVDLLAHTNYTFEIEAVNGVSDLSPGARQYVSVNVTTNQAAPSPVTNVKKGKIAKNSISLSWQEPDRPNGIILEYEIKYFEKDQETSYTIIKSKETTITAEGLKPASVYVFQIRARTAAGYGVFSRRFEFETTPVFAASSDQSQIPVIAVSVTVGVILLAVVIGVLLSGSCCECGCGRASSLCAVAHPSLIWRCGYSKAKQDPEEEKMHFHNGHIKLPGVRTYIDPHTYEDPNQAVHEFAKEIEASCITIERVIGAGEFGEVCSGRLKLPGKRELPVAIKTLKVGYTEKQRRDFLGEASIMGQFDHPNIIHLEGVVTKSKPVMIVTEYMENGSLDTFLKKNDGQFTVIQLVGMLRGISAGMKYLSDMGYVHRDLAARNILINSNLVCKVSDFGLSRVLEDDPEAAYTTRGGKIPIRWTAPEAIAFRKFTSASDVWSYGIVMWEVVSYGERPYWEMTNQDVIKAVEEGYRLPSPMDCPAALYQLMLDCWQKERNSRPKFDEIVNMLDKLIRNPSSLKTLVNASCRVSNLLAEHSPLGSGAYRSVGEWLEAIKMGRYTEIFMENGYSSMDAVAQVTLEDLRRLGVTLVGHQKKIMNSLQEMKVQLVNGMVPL

## CC(C)(C)C(=O)N1N=CC[C@H]1c1ccccc1 [GSK′963]
Recombinant human IDO
  effect on IDO activity: lacks measurable activity; also recorded: no effect; also recorded: inactive
339 kinases; 10μM, Reaction Biology Corporation
  activity against 339 human kinases: does not block the activity of any
339 kinases; 10 μM, panel of 339 kinases
  inhibition against all other kinases tested: < 50%
GRK6; [4]
  remaining activity at 10 µM: 104%
GRK6; [5]
  remaining activity at 10 µM: 104%
GRK6; [6]
  remaining activity at 10 µM: 103%
MST1/STK4; [4]
  remaining activity at 10 µM: 100%
MST1/STK4; [5]
  remaining activity at 10 µM: 101%
MST1/STK4; [6]
  remaining activity at 10 µM: 100%
CDK2/Cyclin A1; [4]
  remaining activity at 10 µM: 107%
CDK2/Cyclin A1; [5]
  remaining activity at 10 µM: 107%
CDK2/Cyclin A1; [6]
  remaining activity at 10 µM: 107%
EPHA5; [4]
  remaining activity at 10 µM: 107%
EPHA5; [5]
  remaining activity at 10 µM: 105%
EPHA5; [6]
  remaining activity at 10 µM: 108%
PAK1; [4]
  remaining activity at 10 µM: 92.8%
PAK1; [5]
  remaining activity at 10 µM: 92.5%
PAK1; [6]
  remaining activity at 10 µM: 93%
TRKB; [4]
  remaining activity at 10 µM: 101%
TRKB; [5]
  remaining activity at 10 µM: 101%
TRKB; [6]
  remaining activity at 10 µM: 100%
CAMK1d; [4]
  remaining activity at 10 µM: 90.2%
CAMK1d; [5]
  remaining activity at 10 µM: 88.6%
CAMK1d; [6]
  remaining activity at 10 µM: 91.8%
CAMK2g; [4]
  remaining activity at 10 µM: 115%
CAMK2g; [5]
  remaining activity at 10 µM: 112%
CAMK2g; [6]
  remaining activity at 10 µM: 118%
[1]
  IC50: 0.9 nM
[2]
  IC50: 1 nM
[3]
  IC50: 4 nM
C57BL/6 mice; 0.2 mg/kg i.p.
  protection from TNF+zVAD-induced temperature loss: significant response
C57BL/6 mice; 2 mg/kg i.p.
  protection from TNF+zVAD-induced temperature loss: completely inhibit temperature loss; also recorded: complete protection

— paper PMC4979471 (Cell Death Discovery, 2015)
